Experimental data reported in PubChem BioAssay AID1919013 (Molecular Pharmacology Branch, DTP, NCI, 2023).

System: LG0703-F498-PDC complex spheroid growth
Assay: Anticancer human tumor LG0703-F498-PDC patient-derived lung adenocarcinoma cell line growth inhibition [AhR]
Settings: for IC50: curve of first compound; for viability, T/C: stronger effect = lower value; active = viability on the fitted dose curve at most 10% of control; inactive = the rest
Procedure, shortened: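 Spheroids combined tumor cells with HUVEC endothelial cells and human MSCs as stroma. AhR antagonists were paired with standard or investigational drugs, each dosed in half-log steps down from near clinical Cmax, or from 10 microM where Cmax was unknown.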

[1] = second compound 0.1 µM, first compound 0.0316 µM
[2] = second compound 0.1 µM, first compound 0.1 µM
[3] = second compound 0.1 µM, first compound 0.316 µM
[4] = second compound 0.1 µM, first compound 1 µM
[5] = second compound 0.316 µM, first compound 0.0316 µM
[6] = second compound 0.316 µM, first compound 0.1 µM
[7] = second compound 0.316 µM, first compound 0.316 µM
[8] = second compound 0.316 µM, first compound 1 µM
[9] = second compound 1 µM, first compound 0.0316 µM
[10] = second compound 1 µM, first compound 0.1 µM
[11] = second compound 1 µM, first compound 0.316 µM
[12] = second compound 1 µM, first compound 1 µM
[13] = second compound 3.16 µM, first compound 0.0316 µM
[14] = second compound 3.16 µM, first compound 0.1 µM
[15] = second compound 3.16 µM, first compound 0.316 µM
[16] = second compound 3.16 µM, first compound 1 µM
[17] = second compound 10 µM, first compound 0.0316 µM
[18] = second compound 10 µM, first compound 0.1 µM
[19] = second compound 10 µM, first compound 0.316 µM
[20] = second compound 10 µM, first compound 1 µM
[21] = second compound 0.1 µM, first compound 3.16 µM
[22] = second compound 0.1 µM, first compound 10 µM
[23] = second compound 0.316 µM, first compound 3.16 µM
[24] = second compound 0.316 µM, first compound 10 µM
[25] = second compound 1 µM, first compound 3.16 µM
[26] = second compound 1 µM, first compound 10 µM
[27] = second compound 3.16 µM, first compound 3.16 µM
[28] = second compound 3.16 µM, first compound 10 µM
[29] = second compound 10 µM, first compound 3.16 µM
[30] = second compound 10 µM, first compound 10 µM
[31] = second compound 0.1 µM, first compound 0.00949 µM
[32] = second compound 0.1 µM, first compound 0.03 µM
[33] = second compound 0.1 µM, first compound 0.0949 µM
[34] = second compound 0.1 µM, first compound 0.3 µM
[35] = second compound 0.316 µM, first compound 0.00949 µM
[36] = second compound 0.316 µM, first compound 0.03 µM
[37] = second compound 0.316 µM, first compound 0.0949 µM
[38] = second compound 0.316 µM, first compound 0.3 µM
[39] = second compound 1 µM, first compound 0.00949 µM
[40] = second compound 1 µM, first compound 0.03 µM
[41] = second compound 1 µM, first compound 0.0949 µM
[42] = second compound 1 µM, first compound 0.3 µM
[43] = second compound 3.16 µM, first compound 0.00949 µM
[44] = second compound 3.16 µM, first compound 0.03 µM
[45] = second compound 3.16 µM, first compound 0.0949 µM
[46] = second compound 3.16 µM, first compound 0.3 µM
[47] = second compound 10 µM, first compound 0.00949 µM
[48] = second compound 10 µM, first compound 0.03 µM
[49] = second compound 10 µM, first compound 0.0949 µM
[50] = second compound 10 µM, first compound 0.3 µM
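Note: luminescence taken as a proxy for viable cell amount.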
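Throughout, for viability, T/C: percent of DMSO vehicle control where 100% means growth equal to vehicle.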

CC1COCCN1c1cc(-c2ccnn2C)c2ccnc(-c3ccn[nH]3)c2n1 (stereo not given) + Cc1cncc(-c2nc(NCCc3c[nH]c4ccccc34)c3ncn(C(C)C)c3n2)c1
621 nM: IC50 (second compound 0.1 µM)
active: viability, T/C (second compound 10 µM, first compound 0.00316 µM) 1.11% | viability, T/C (second compound 10 µM, first compound 0.01 µM) 1.21% | viability, T/C [17] 1.42% | viability, T/C [18] 1.71% | viability, T/C [19] 0.8% | viability, T/C [20] 2.39%
279 nM: IC50 (second compound 0.316 µM)
468 nM: IC50 (second compound 1 µM)
inactive: viability, T/C (second compound 0.1 µM, first compound 0.00316 µM) 104% | viability, T/C (second compound 0.1 µM, first compound 0.01 µM) 103% | viability, T/C [1] 112% | viability, T/C [2] 82.3% | viability, T/C [3] 64.6% | viability, T/C [4] 40.8% | viability, T/C (second compound 0.316 µM, first compound 0.00316 µM) 111% | viability, T/C (second compound 0.316 µM, first compound 0.01 µM) 120% | viability, T/C [5] 102% | viability, T/C [6] 76.4% | viability, T/C [7] 47.5% | viability, T/C [8] 34.3% | viability, T/C (second compound 1 µM, first compound 0.00316 µM) 119% | viability, T/C (second compound 1 µM, first compound 0.01 µM) 112% | viability, T/C [9] 111% | viability, T/C [10] 83.2% | viability, T/C [11] 58.9% | viability, T/C [12] 35.5% | viability, T/C (second compound 3.16 µM, first compound 0.00316 µM) 38% | viability, T/C (second compound 3.16 µM, first compound 0.01 µM) 34.6% | viability, T/C [13] 33.2% | viability, T/C [14] 27.5% | viability, T/C [15] 18.7% | viability, T/C [16] 15.7%
< 3.16 nM: IC50 (second compound 3.16 µM) | IC50 (second compound 10 µM)

CC1COCCN1c1cc(C2(S(C)(=N)=O)CC2)nc(-c2ccnc3[nH]ccc23)n1 (stereo not given) + Cc1cncc(-c2nc(NCCc3c[nH]c4ccccc34)c3ncn(C(C)C)c3n2)c1
< 31.6 nM: IC50 (second compound 3.16 µM) | IC50 (second compound 10 µM)
inactive: viability, T/C [1] 107% | viability, T/C [2] 104% | viability, T/C [3] 92.5% | viability, T/C [4] 96.4% | viability, T/C [21] 97.2% | viability, T/C [22] 59.2% | viability, T/C [5] 92.4% | viability, T/C [6] 110% | viability, T/C [7] 105% | viability, T/C [8] 110% | viability, T/C [23] 89.7% | viability, T/C [24] 54.5% | viability, T/C [9] 107% | viability, T/C [10] 91.2% | viability, T/C [11] 101% | viability, T/C [12] 94.8% | viability, T/C [25] 89.9% | viability, T/C [26] 46.9% | viability, T/C [13] 18% | viability, T/C [14] 18.5% | viability, T/C [15] 25% | viability, T/C [16] 17.1% | viability, T/C [27] 13.5% | viability, T/C [28] 8.17%
9330 nM: IC50 (second compound 1 µM)
> 10000 nM: IC50 (second compound 0.1 µM) | IC50 (second compound 0.316 µM)
active: viability, T/C [17] 1.76% | viability, T/C [18] 1.78% | viability, T/C [19] 1.04% | viability, T/C [20] 1.58% | viability, T/C [29] 0.93% | viability, T/C [30] 1.14%

COc1ccc([C@@H](O)c2cc(-c3ncnc4cc(N5CCOCC5)ccc34)c(F)cc2Cl)nn1 + Cc1cncc(-c2nc(NCCc3c[nH]c4ccccc34)c3ncn(C(C)C)c3n2)c1
active: viability, T/C [17] 1.26% | viability, T/C [18] 1% | viability, T/C [19] 1.42% | viability, T/C [20] 1.17% | viability, T/C [29] 0.52% | viability, T/C [30] 1.67%
4590 nM: IC50 (second compound 1 µM)
4810 nM: IC50 (second compound 0.316 µM)
5420 nM: IC50 (second compound 0.1 µM)
inactive: viability, T/C [1] 87.8% | viability, T/C [2] 107% | viability, T/C [3] 98.1% | viability, T/C [4] 82.2% | viability, T/C [21] 65.3% | viability, T/C [22] 34% | viability, T/C [5] 105% | viability, T/C [6] 97% | viability, T/C [7] 97.8% | viability, T/C [8] 82% | viability, T/C [23] 63.5% | viability, T/C [24] 27.5% | viability, T/C [9] 95.9% | viability, T/C [10] 104% | viability, T/C [11] 103% | viability, T/C [12] 92.4% | viability, T/C [25] 60.4% | viability, T/C [26] 28.7% | viability, T/C [13] 36.7% | viability, T/C [14] 42.4% | viability, T/C [15] 34% | viability, T/C [16] 27.4% | viability, T/C [27] 17.8% | viability, T/C [28] 13%
< 31.6 nM: IC50 (second compound 3.16 µM) | IC50 (second compound 10 µM)

Nc1ncn(C2CC(O)C(CO)S2)c(=O)n1 (stereo not given) + Cc1cncc(-c2nc(NCCc3c[nH]c4ccccc34)c3ncn(C(C)C)c3n2)c1
active: viability, T/C (second compound 3.16 µM, first compound 0.000949 µM) 3.25% | viability, T/C (second compound 3.16 µM, first compound 0.003 µM) 3.89% | viability, T/C [43] 4.63% | viability, T/C [44] 5.24% | viability, T/C [45] 2.89% | viability, T/C [46] 4.14% | viability, T/C (second compound 10 µM, first compound 0.000949 µM) 1.24% | viability, T/C (second compound 10 µM, first compound 0.003 µM) 0.8% | viability, T/C [47] 1.81% | viability, T/C [48] 1.01% | viability, T/C [49] 1.6% | viability, T/C [50] 1.59%
< 0.949 nM: IC50 (second compound 3.16 µM) | IC50 (second compound 10 µM)
> 300 nM: IC50 (second compound 0.1 µM) | IC50 (second compound 0.316 µM) | IC50 (second compound 1 µM)
inactive: viability, T/C (second compound 0.1 µM, first compound 0.000949 µM) 107% | viability, T/C (second compound 0.1 µM, first compound 0.003 µM) 109% | viability, T/C [31] 91.9% | viability, T/C [32] 98.4% | viability, T/C [33] 104% | viability, T/C [34] 105% | viability, T/C (second compound 0.316 µM, first compound 0.000949 µM) 117% | viability, T/C (second compound 0.316 µM, first compound 0.003 µM) 107% | viability, T/C [35] 108% | viability, T/C [36] 115% | viability, T/C [37] 109% | viability, T/C [38] 99.1% | viability, T/C (second compound 1 µM, first compound 0.000949 µM) 87.3% | viability, T/C (second compound 1 µM, first compound 0.003 µM) 89.1% | viability, T/C [39] 78.2% | viability, T/C [40] 86.3% | viability, T/C [41] 94.4% | viability, T/C [42] 103%

O=C(C=Cn1cnc(-c2cc(C(F)(F)F)cc(C(F)(F)F)c2)n1)NNc1cnccn1 + Cc1cncc(-c2nc(NCCc3c[nH]c4ccccc34)c3ncn(C(C)C)c3n2)c1
99.1 nM: IC50 (second compound 1 µM)
active: viability, T/C [47] 1.57% | viability, T/C [48] 1.26% | viability, T/C [49] 1.76% | viability, T/C [50] 2.84% | viability, T/C (second compound 10 µM, first compound 0.949 µM) 2.94% | viability, T/C (second compound 10 µM, first compound 3 µM) 4.72%
115 nM: IC50 (second compound 0.316 µM)
inactive: viability, T/C [31] 87.9% | viability, T/C [32] 70.4% | viability, T/C [33] 49.8% | viability, T/C [34] 40% | viability, T/C (second compound 0.1 µM, first compound 0.949 µM) 37.4% | viability, T/C (second compound 0.1 µM, first compound 3 µM) 27.9% | viability, T/C [35] 82.4% | viability, T/C [36] 69.7% | viability, T/C [37] 51.8% | viability, T/C [38] 36.2% | viability, T/C (second compound 0.316 µM, first compound 0.949 µM) 37.4% | viability, T/C (second compound 0.316 µM, first compound 3 µM) 25% | viability, T/C [39] 82.6% | viability, T/C [40] 70.9% | viability, T/C [41] 48.8% | viability, T/C [42] 38.2% | viability, T/C (second compound 1 µM, first compound 0.949 µM) 29.2% | viability, T/C (second compound 1 µM, first compound 3 µM) 27.9% | viability, T/C [43] 62.3% | viability, T/C [44] 47.4% | viability, T/C [45] 34.3% | viability, T/C [46] 26% | viability, T/C (second compound 3.16 µM, first compound 0.949 µM) 26.3% | viability, T/C (second compound 3.16 µM, first compound 3 µM) 24.9%
< 9.49 nM: IC50 (second compound 10 µM)
116 nM: IC50 (second compound 0.1 µM)
24.9 nM: IC50 (second compound 3.16 µM)
